For 21 compounds, IC50 results are on record in patent US20250144094A1 (Erasca, Inc., priority 2021, published 2025).

pIC50: −log10 of the molar value.

Sequence of Recombinant human ULK1 (1-649) (O75385 1-649): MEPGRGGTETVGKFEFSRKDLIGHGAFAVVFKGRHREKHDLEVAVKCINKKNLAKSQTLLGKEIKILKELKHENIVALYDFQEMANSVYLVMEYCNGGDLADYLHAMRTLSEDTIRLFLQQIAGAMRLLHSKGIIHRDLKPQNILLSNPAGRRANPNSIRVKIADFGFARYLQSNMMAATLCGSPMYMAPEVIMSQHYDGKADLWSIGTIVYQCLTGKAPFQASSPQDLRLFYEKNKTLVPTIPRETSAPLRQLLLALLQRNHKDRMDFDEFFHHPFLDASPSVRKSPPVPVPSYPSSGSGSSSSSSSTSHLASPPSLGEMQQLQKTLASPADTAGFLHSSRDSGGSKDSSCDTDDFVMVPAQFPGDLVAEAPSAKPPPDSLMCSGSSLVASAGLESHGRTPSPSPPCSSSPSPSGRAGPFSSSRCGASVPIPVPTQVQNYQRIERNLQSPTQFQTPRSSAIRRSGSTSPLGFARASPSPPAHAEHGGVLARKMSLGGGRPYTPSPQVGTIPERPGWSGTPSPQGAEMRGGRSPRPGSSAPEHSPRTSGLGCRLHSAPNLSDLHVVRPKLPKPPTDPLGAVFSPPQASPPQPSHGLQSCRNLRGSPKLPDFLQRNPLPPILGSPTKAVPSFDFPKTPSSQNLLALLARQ

The target in the assay is Recombinant human ULK1 (1-649) (Homo sapiens (Human), UniProt O75385). Description: ULK1 ADP Glo kinase activity assay, new method (ULKtide peptide substrate). The settings on record: 25° C., 40 minutes, read-out: ULK1 biochemical IC50. The method in brief:
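GST-tagged human ULK1 (1-649) from Sf9 cells was reacted with ULKtide peptide and ATP for 40 min at 25 °C across 12-point compound dilutions from 10 μM. ADP formed was quantified by ADP-Glo luminescence; IC50 came from four-parameter fits relative to DMSO controls.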
With `CCc1cc(N2C[C@H](C)N(C)[C@@H](C)C2)ccc1Nc1ncc(C(F)(F)F)c(-c2cc3c(s2)C(=O)N(C2CC2)CCS3(=O)=O)n1` [Example 363, 4-cyclopropyl-7-(2-((2-ethyl-4-((3S,5S)-3,4,5-trimethylpiperazin-1-yl)phenyl)amino)-5-(trifluoromethyl)pyrimidin-4-yl)-3,4-dihydrothieno[2,3-f][1,4]thiazepin-5(2H)-one 1,1-dioxide], the pIC50 is not below 8.30.

As to `CCc1cc(N2CCNCC2)ccc1Nc1ncc(C(F)(F)F)c(-c2cc3c(s2)C(=O)N(C2COC2)CCS3(=O)=O)n1` [Example 364, 7-(2-((2-ethyl-4-(piperazin-1-yl)phenyl)amino)-5-(trifluoromethyl)pyrimidin-4-yl)-4-(oxetan-3-yl)-3,4-dihydrothieno[2,3-f][1,4]thiazepin-5(2H)-one 1,1-dioxide], the pIC50 was not below 8.30. In the case of `CCc1cc(N2C[C@@H](C)N[C@@H](C)C2)ccc1Nc1ncc(C(F)(F)F)c(-c2cc3c(s2)C(=O)N(C2CC2)CCS3(=O)=O)n1` [Example 366, 4-cyclopropyl-7-(2-((4-((3S,5R)-3,5-dimethylpiperazin-1-yl)-2-ethylphenyl)amino)-5-(trifluoromethyl)pyrimidin-4-yl)-3,4-dihydrothieno[2,3-f][1,4]thiazepin-5(2H)-one 1,1-dioxide], the pIC50 is not below 8.30. As for `CCc1cc(N2C[C@@H](C)N(C)[C@@H](C)C2)ccc1Nc1ncc(C(F)(F)F)c(-c2cc3c(s2)C(=O)N(C2CC2)CCS3(=O)=O)n1` [Example 367, 4-cyclopropyl-7-(2-((2-ethyl-4-((3S,5R)-3,4,5-trimethylpiperazin-1-yl)phenyl)amino)-5-(trifluoromethyl)pyrimidin-4-yl)-3,4-dihydrothieno[2,3-f][1,4]thiazepin-5(2H)-one 1,1-dioxide], the pIC50 is not below 8.30. With `CCc1cc(N2C[C@@H](C)N[C@@H](C)C2)ccc1Nc1ncc(C(F)(F)F)c(-c2cc3c(s2)C(=O)N(C2COC2)CCS3(=O)=O)n1` [Example 368, 7-(2-((4-((3S,5R)-3,5-dimethylpiperazin-1-yl)-2-ethylphenyl)amino)-5-(trifluoromethyl)pyrimidin-4-yl)-4-(oxetan-3-yl)-3,4-dihydrothieno[2,3-f][1,4]thiazepin-5(2H)-one 1,1-dioxide], the pIC50 is not below 8.30.

Consider `CCc1cc(N2C[C@@H](C)N(C)[C@@H](C)C2)ccc1Nc1ncc(C(F)(F)F)c(-c2cc3c(s2)C(=O)N(C2COC2)CCS3(=O)=O)n1` [Example 369, 7-(2-((2-ethyl-4-((3S,5R)-3,4,5-trimethylpiperazin-1-yl)phenyl)amino)-5-(trifluoromethyl)pyrimidin-4-yl)-4-(oxetan-3-yl)-3,4-dihydrothieno[2,3-f][1,4]thiazepin-5(2H)-one 1,1-dioxide], for which the pIC50 is not below 8.30.

With `CCc1cc(N2C[C@H](C)N[C@@H](C)C2)ccc1Nc1ncc(C(F)(F)F)c(-c2cc3c(s2)C(=O)N(C2COC2)CCS3(=O)=O)n1` [Example 370, 7-(2-((4-((3S,5S)-3,5-dimethylpiperazin-1-yl)-2-ethylphenyl)amino)-5-(trifluoromethyl)pyrimidin-4-yl)-4-(oxetan-3-yl)-3,4-dihydrothieno[2,3-f][1,4]thiazepin-5(2H)-one 1,1-dioxide], the pIC50 is not below 8.30. As for `NC(=O)[C@@H]1CN(c2ccc(Nc3ncc(C(F)(F)F)c(-c4cc5c(s4)C(=O)N(C4COC4)CCS5(=O)=O)n3)c(C3CC3)c2)CCN1` [Example 371, (S)-4-(3-cyclopropyl-4-((4-(4-(oxetan-3-yl)-1,1-dioxido-5-oxo-2,3,4,5-tetrahydrothieno[2,3-f][1,4]thiazepin-7-yl)-5-(trifluoromethyl)pyrimidin-2-yl)amino)phenyl)piperazine-2-carboxamide], the pIC50 is not below 8.30. The figure for `CN1CCN(c2ccc(Nc3ncc(C(F)(F)F)c(-c4cc5c(s4)C(=O)N(C4COC4)CCS5(=O)=O)n3)c(C3CC3)c2)C[C@H]1C(N)=O` [Example 372, (S)-4-(3-Cyclopropyl-4-((4-(4-(oxetan-3-yl)-1,1-dioxido-5-oxo-2,3,4,5-tetrahydrothieno[2,3-f][1,4]thiazepin-7-yl)-5-(trifluoromethyl)pyrimidin-2-yl)amino)phenyl)-1-methylpiperazine-2-carboxamide] is not below 8.30. For the compound `CNC(=O)[C@@H]1CN(c2ccc(Nc3ncc(C(F)(F)F)c(-c4cc5c(s4)C(=O)N(C4COC4)CCS5(=O)=O)n3)c(C3CC3)c2)CCN1` [Example 373, (S)-4-(3-cyclopropyl-4-((4-(4-(oxetan-3-yl)-1,1-dioxido-5-oxo-2,3,4,5-tetrahydrothieno[2,3-f][1,4]thiazepin-7-yl)-5-(trifluoromethyl)pyrimidin-2-yl)amino)phenyl)-N-methylpiperazine-2-carboxamide], the pIC50 was not below 8.30. As for `C[C@@H]1CN(c2cc(C3CC3)c(Nc3ncc(C(F)(F)F)c(-c4cc5c(s4)C(=O)N(C4COC4)CCS5(=O)=O)n3)cn2)CCN1` [Example 374, (R)-7-(2-((4-cyclopropyl-6-(3-methylpiperazin-1-yl)pyridin-3-yl)amino)-5-(trifluoromethyl)pyrimidin-4-yl)-4-(oxetan-3-yl)-3,4-dihydrothieno[2,3-f][1,4]thiazepin-5(2H)-one 1,1-dioxide], the pIC50 is not below 8.30.

Consider `C[C@@H]1CN(c2ccc(Nc3ncc(C(F)(F)F)c(-c4cc5c(s4)C(=O)N(C4COC4)CCS5(=O)=O)n3)c(C3CC3)n2)CCN1` [Example 375, (R)-7-(2-((2-cyclopropyl-6-(3-methylpiperazin-1-yl)pyridin-3-yl)amino)-5-(trifluoromethyl)pyrimidin-4-yl)-4-(oxetan-3-yl)-3,4-dihydrothieno[2,3-f][1,4]thiazepin-5(2H)-one 1,1-dioxide], for which the pIC50 is not below 8.30. As to `C[C@@H]1CN(c2ccc(Nc3ncc(C(F)(F)F)c(-c4cc5c(s4)C(=O)N(C4COC4)CCS5(=O)=O)n3)c(C3CC3)n2)CCN1C` [Example 376, (R)-7-(2-((2-cyclopropyl-6-(3,4-dimethylpiperazin-1-yl)pyridin-3-yl)amino)-5-(trifluoromethyl)pyrimidin-4-yl)-4-(oxetan-3-yl)-3,4-dihydrothieno[2,3-f][1,4]thiazepin-5(2H)-one 1,1-dioxide], the pIC50 was not below 8.30. In the case of `O=C1c2sc(-c3nc(Nc4ccc(N5CC6(CNC6)C5)cc4C4CC4)ncc3C(F)(F)F)cc2S(=O)(=O)CCN1C1COC1` [Example 377, 7-(2-((2-Cyclopropyl-4-(2,6-diazaspiro[3.3]heptan-2-yl)phenyl)amino)-5-(trifluoromethyl)pyrimidin-4-yl)-4-(oxetan-3-yl)-3,4-dihydrothieno[2,3-f][1,4]thiazepin-5(2H)-one 1,1-dioxide], the pIC50 was not below 8.30. For the compound `C[C@@H]1CN(c2ccc(Nc3ncc(C(F)(F)F)c(-c4cc5c(s4)C(=O)N(C)CCS5(=O)=O)n3)c(C3CC3)c2)CCN1C` [Example 378, (R)-7-(2-((2-cyclopropyl-4-(3,4-dimethylpiperazin-1-yl)phenyl)amino)-5-(trifluoromethyl)pyrimidin-4-yl)-4-methyl-3,4-dihydrothieno[2,3-f][1,4]thiazepin-5(2H)-one 1,1-dioxide], the pIC50 is not below 8.30. `CN1CCS(=O)(=O)c2cc(-c3nc(Nc4ccc(N5C[C@H]6C[C@@H]5CN6)cc4C4CC4)ncc3C(F)(F)F)sc2C1=O` [Example 379, 7-(2-((4-((1R,4R)-2,5-diazabicyclo[2.2.1]heptan-2-yl)-2-cyclopropylphenyl)amino)-5-(trifluoromethyl)pyrimidin-4-yl)-4-methyl-3,4-dihydrothieno[2,3-f][1,4]thiazepin-5(2H)-one 1,1-dioxide]: the pIC50 was not below 8.30. On to `C[C@H]1CN(c2ccc(Nc3ncc(C(F)(F)F)c(-c4cc5c(s4)C(=O)N(C)CCS5(=O)=O)n3)c(C3CC3)c2)CCN1` [Example 380, (S)-7-(2-((2-cyclopropyl-4-(3-methylpiperazin-1-yl)phenyl)amino)-5-(trifluoromethyl)pyrimidin-4-yl)-4-methyl-3,4-dihydrothieno[2,3-f][1,4]thiazepin-5(2H)-one 1,1-dioxide], for which the negative logarithm of the IC50 (pIC50) was not below 8.30. As for `CN1CCS(=O)(=O)c2cc(-c3nc(Nc4cnc(N5C[C@H]6C[C@@H]5CN6)cc4C4CC4)ncc3C(F)(F)F)sc2C1=O` [Example 382, 7-(2-((6-((1R,4R)-2,5-diazabicyclo[2.2.1]heptan-2-yl)-4-cyclopropylpyridin-3-yl)amino)-5-(trifluoromethyl)pyrimidin-4-yl)-4-methyl-3,4-dihydrothieno[2,3-f][1,4]thiazepin-5(2H)-one 1,1-dioxide], the pIC50 is not below 8.30. For `CN1CCS(=O)(=O)c2cc(-c3nc(Nc4cnc(N5CC6CC(C5)N6)cc4C4CC4)ncc3C(F)(F)F)sc2C1=O` [Example 383, 7-(2-((6-(3,6-diazabicyclo[3.1.1]heptan-3-yl)-4-cyclopropylpyridin-3-yl)amino)-5-(trifluoromethyl)pyrimidin-4-yl)-4-methyl-3,4-dihydrothieno[2,3-f][1,4]thiazepin-5(2H)-one 1,1-dioxide], the pIC50 is not below 8.30.

As for `O=C1c2sc(-c3nc(Nc4cnc(N5CC6CC(C5)N6)cc4C4CC4)ncc3C(F)(F)F)cc2S(=O)(=O)CCN1C1COC1` [Example 384, 7-(2-((6-(3,6-diazabicyclo[3.1.1]heptan-3-yl)-4-cyclopropylpyridin-3-yl)amino)-5-(trifluoromethyl)pyrimidin-4-yl)-4-(oxetan-3-yl)-3,4-dihydrothieno[2,3-f][1,4]thiazepin-5(2H)-one 1,1-dioxide], the pIC50 was not below 8.30. The figure for `CCc1cc(N2CCN[C@H](C)C2)ccc1Nc1ncc(C(F)(F)F)c(-c2cc3c(s2)C(=O)N(C2COC2)CCS3(=O)=O)n1` [Example 406, (R)-7-(2-((2-ethyl-4-(3-methylpiperazin-1-yl)phenyl)amino)-5-(trifluoromethyl)pyrimidin-4-yl)-4-(oxetan-3-yl)-3,4-dihydrothieno[2,3-f][1,4]thiazepin-5(2H)-one 1,1-dioxide] is not below 8.30.
